# Source: patent publication US20160279166A1, “TREATING AGENT AND TREATING METHOD FOR THE EXAMINATION OR OPERATION OF THE LARGE INTESTINE” (KYOWA CHEMICAL INDUSTRY CO., LTD., priority 2013, published 2016)
# Key:
# large intestine = assay: CT examination of the large intestine: evaluation of remaining feces, remaining water and overall evaluation after pretreatment; assay type: in vivo, human; conditions: conclusion from CT overall evaluation
# Experimental: The large intestine is divided into 6 parts in order to evaluate remaining feces and remaining water in each part in five stages from an image of the large intestine at a supine position (SU) and a lateral recumbent position (PR) obtained from CT examination. Further, overall evaluation was carried out from the obtained evaluation results.
# The large intestine is divided into the following six parts.
# C: appendix A: ascending colon T: transverse colon D: descending colon S: sigmoid colon R: rectum
# The remaining feces were evaluated in five stages according to the existence of movement and a shape change.
# 0: difficult to evaluate 1: sticks to a mucous membrane 2: no movement and no shape change 3: moved and changed in shape 4: almost no remaining feces
# The remaining water was evaluated in the following five stages according to its proportion to the circumference.
# 0: 4/4 of the circumference is under water (complete submersion). 1: 3/4 of the circumference is under water 2: 2/4 of the circumference is under water 3: 1/4 of the circumference is under water (submersion of semilunar pleat) 4: almost no submersion
# The overall evaluation was made in the following five stages.
# 0: not useful 1: it cannot be said whether it is useful or not 2: rather useful 3: useful 4: very useful
# 3 g of MgO for each examination was divided in two portions to be administered as the pretreatment of the examination. […]
# rats [1] = assay: Defecation state (soft stool) of rats 9 hours after administration; assay type: in vivo, rat; conditions: oral, after 9 hours, magnesium oxide 700 mg/kg, fiber powders 4500 mg/kg, fiber liquid 4500 mg/kg as administered
# Experimental: (§1) Magnesium oxide particles and water-soluble dietary fibers were administered to rats for animal testing to check the defecation states after 9 hours. Laparotomy was made on the rats after 9 hours to measure the amount of remaining feces, the amount of dry feces and the content of water in the intestinal tract.
# (§2) A preparation containing 1.4 g of magnesium oxide particles and 9 g of water-soluble dietary fiber powders was used to administer 700 mg/kg of the magnesium oxide particles and 4,500 mg/kg of the water-soluble dietary fiber powders to rats. The magnesium oxide in use was magnesium oxide particles having an average secondary particle diameter specified in the present invention. The water-soluble dietary fibers in use were reduced indigestible dextrin specified in the present invention.
# The total suspension liquid doses to test groups were fixed. […] The defecation state was checked after 9 hours, and the amount of remaining feces, the amount of dry feces and the content of water in the large intestine of each rat were measured to evaluate the effects on the properties of feces of the magnesium oxide particles and the water-soluble dietary fibers.
# rats [2] = assay: Laparotomy of rats after 9 hours: remaining feces, dry feces and water content in the large intestinal tract; assay type: in vivo, rat
# Experimental: as §1, §2
# The total suspension liquid doses to test groups were fixed. When the magnesium oxide particles and a mixture of the magnesium oxide particles and the water-soluble dietary fiber powders were administered, 5 ml/kg of them was administered, and when they were not administered, 0.05% CMC-NA was administered. When the water-soluble dietary fiber liquid was administered, 10 ml/kg of it was administered and when the water-soluble dietary fiber liquid was not administered, 10 ml/kg of water was administered. The defecation state was checked after 9 hours, and the amount of remaining feces, the amount of dry feces and the content of water in the large intestine of each rat were measured to evaluate the effects on the properties of feces of the magnesium oxide particles and the water-soluble dietary fibers.
# rats [3] = assay: Defecation state (diarrhea) of rats after 9 hours with varied amount of ingested water; assay type: in vivo, rat; conditions: oral, magnesium oxide 700 mg/kg
# Experimental: Magnesium oxide particles were administered to rats for animal testing to check the defecation states after 9 hours. At this point, the amount of water to be taken was increased and decreased to evaluate the effect on laxative action of the amount of water to be taken.
# A preparation containing magnesium oxide as an effective component and crystalline cellulose, croscarmellose and calcium stearate as additives was used. […] The magnesium oxide in use is magnesium oxide particles having an average secondary particle diameter specified in the present invention.
# The defecation state of each test group was checked after 9 hours so as to calculate the water-like feces excretion rate and evaluate the effect on the properties of feces of the amount of ingested water when the magnesium oxide particles were administered.
# [4] = large intestinal tract after 9 hours, magnesium oxide 700 mg/kg, fiber powders 4500 mg/kg, fiber liquid 4500 mg/kg as administered
structure (smiles),measurement,setting,value
"[O]=[Mg] [Magnesium oxide particles, magnesium oxide]",effectiveness as a treating agent for the examination or operation of the large intestine (in words),large intestine,extremely effective
same,Proportion having soft stool (number of rats having soft stool/number of test rats),rats [1],3/5
same,amount of dry feces (in words),rats [2]; after 9 hours,reduced
same,content of water (in words),rats [2]; after 9 hours,increased
same,Amount of dry feces,rats [2]; [4],12%
same,Amount of remaining feces,rats [2]; [4],3.69 g
same,Content of water,rats [2]; [4],88%
same,Proportion causing diarrhea (number of rats suffering from diarrhea/number of test rats),rats [3]; water 1 mL/kg,3/5
same,Proportion causing diarrhea (number of rats suffering from diarrhea/number of test rats),rats [3]; water 10 mL/kg,4/5
same,Proportion causing diarrhea (number of rats suffering from diarrhea/number of test rats),rats [3]; water 35 mL/kg,5/5
